# ChEMBL document CHEMBL1123368, “Plant antitumor agents. 23. Synthesis and antileukemic activity of camptothecin analogues” (1986)
# Calls of active or inactive are those of the source. The calls are words filed in the database; no cut-off is given here.
# Legend:
# P338 [1] = assay: Compound was evaluated for antitumor activity against P-338 leukemia in mice, active dose range of the compound; Lowest dose to highest dose administered, dose range was 7.5-60 mg/kg; format: functional, Mus musculus
# P338 [2] = assay: Antitumor activity against P-338 leukemia in mice.; format: functional, Mus musculus
# P338 [3] = assay: Compound was evaluated for antitumor activity against P-338 leukemia in mice at the dose of 60 mg/kg; T/C=Survival time of treated/control animals*100; format: functional, Mus musculus
# L1210 leukemia (mouse) [4] = assay: Compound was evaluated for antitumor activity against L1210 leukemia in mice at the dose of 2.5 mg/kg; T/C=Survival time of treated/control animals*100
# L1210 leukemia (mouse) [5] = assay: Antitumor activity against L1210 leukemia in mice
# L1210 leukemia (mouse) [6] = assay: Compound was evaluated for antitumor activity against L1210 leukemia in mice, active dose range of the compound; Lowest dose administered, dose range was 2.5-5 mg/kg
# P338 [7] = assay: Compound was evaluated for antitumor activity against P-338 leukemia in mice at the dose of 8 mg/kg; T/C=Survival time of treated/control animals*100; format: functional, Mus musculus
# P338 [8] = assay: Compound was evaluated for antitumor activity against P-338 leukemia in mice, active dose range of the compound; Lowest dose administered, dose range was 4-16 mg/kg; format: functional, Mus musculus
# P338 [9] = assay: Compound was evaluated for antitumor activity against P-338 leukemia in mice. toxic dose range of the compound; Highest dose administered; format: functional, Mus musculus
# L1210 leukemia (mouse) [10] = assay: Compound was evaluated for antitumor activity against L1210 leukemia in mice at the dose of 40 mg/kg; T/C=Survival time of treated/control animals*100
# P338 [11] = assay: Compound was evaluated for antitumor activity against P-338 leukemia in mice, active dose range of the compound; Lowest dose to highest dose administered, dose range was 2.5-40 mg/kg; format: functional, Mus musculus
# P338 [12] = assay: Compound was evaluated for antitumor activity against P-338 leukemia in mice at the dose of 4 mg/kg; T/C=Survival time of treated/control animals*100; format: functional, Mus musculus
# P338 [13] = assay: Compound was evaluated for antitumor activity against P-338 leukemia in mice; T/C=Survival time of treated/control animals*100; Inactive; format: functional; settings: Mus musculus
# P338 [14] = assay: Compound was evaluated for antitumor activity against P-338 leukemia in mice, active dose range of the compound; Lowest dose administered, dose range was 2.0-4.0 mg/kg; format: functional, Mus musculus
# P338 [15] = assay: Compound was evaluated for antitumor activity against P-338 leukemia in mice at the dose of 2 mg/kg; T/C=Survival time of treated/control animals*100; format: functional, Mus musculus
# P338 [16] = assay: Compound was evaluated for antitumor activity against P-338 leukemia in mice, active dose range of the compound; Lowest dose administered, dose range was 1.25-2.5 mg/kg; format: functional, Mus musculus
# P338 [17] = assay: Compound was evaluated for antitumor activity against P-338 leukemia in mice.a ctive dose range was 8-32 mg/kg; format: functional, Mus musculus
# P338 [18] = assay: Compound was evaluated for antitumor activity against P-338 leukemia in mice at the dose of 32 mg/kg; T/C=Survival time of treated/control animals*100; format: functional, Mus musculus
# P338 [19] = assay: Compound was evaluated for antitumor activity against P-338 leukemia in mice, active dose range of the compound; Lowest dose administered, dose range was 2.5-40 mg/kg; format: functional, Mus musculus
# P338 [20] = assay: Compound was evaluated for antitumor activity against P-338 leukemia in mice at the dose of 16 mg/kg; T/C=Survival time of treated/control animals*100; format: functional, Mus musculus
# P338 [21] = assay: Compound was evaluated for antitumor activity against P-338 leukemia in mice, active dose range of the compound; Lowest dose to highest dose administered, dose range was 2-32 mg/kg; format: functional, Mus musculus
# P338 [22] = assay: Compound was evaluated for antitumor activity against P-338 leukemia in mice; T/C=Survival time of treated/control animals *100; Inactive; format: functional; settings: Mus musculus
# P338 [23] = assay: Compound was evaluated for antitumor activity against P-338 leukemia in mice, active dose range of the compound; Lowest dose administered, dose range was 7.5-15.5 mg/kg; format: functional, Mus musculus
# P338 [24] = assay: Compound was evaluated for antitumor activity against P-338 leukemia in mice, toxic dose range of the compound; format: functional, Mus musculus
# P338 [25] = assay: Compound was evaluated for antitumor activity against P-338 leukemia in mice, active dose range of the compound; Lowest dose administered, dose range was 0.4-3.1 mg/kg; format: functional, Mus musculus
# P338 [26] = assay: Compound was evaluated for antitumor activity against P-338 leukemia in mice at the dose of 3.1 mg/kg; T/C=Survival time of treated/control animals*100; format: functional, Mus musculus
# L1210 leukemia (mouse) [27] = assay: Compound was evaluated for antitumor activity against L1210 leukemia in mice, active dose range of the compound; Lowest dose administered, dose range was 2.5-20 mg/kg
# L1210 leukemia (mouse) [28] = assay: Compound was evaluated for antitumor activity against L1210 leukemia in mice at the dose of 10 mg/kg; T/C=Survival time of treated/control animals*100
# P338 [29] = assay: Compound was evaluated for antitumor activity against P-338 leukemia in mice, active dose range of the compound; Lowest dose to highest dose administered, dose range was 5-40 mg/kg; format: functional, Mus musculus
# P338 [30] = assay: Compound was evaluated for antitumor activity against P-338 leukemia in mice at the dose of 20 mg/kg; T/C=Survival time of treated/control animals*100; format: functional, Mus musculus
# P338 [31] = assay: Compound was evaluated for antitumor activity against P-338 leukemia in mice at the dose of 1.6 mg/kg; T/C=Survival time of treated/control animals*100; format: functional, Mus musculus
# P338 [32] = assay: Compound was evaluated for antitumor activity against P-338 leukemia in mice, active dose range of the compound; Lowest dose administered, dose range was 0.4-1.6 mg/kg; format: functional, Mus musculus
# P338 [33] = assay: Compound was evaluated for antitumor activity against P-338 leukemia in mice, active dose range of the compound; Lowest dose administered, dose range was 3.12-25 mg/kg; format: functional, Mus musculus
# P338 [34] = assay: Compound was evaluated for antitumor activity against P-338 leukemia in mice at the dose of 25 mg/kg; T/C=Survival time of treated/control animals*100; format: functional, Mus musculus
compound,measurement,setting,value
CCC1(O)C(=O)OCc2c1cc1n(c2=O)Cc2cc3ccc(O)cc3nc2-1 (racemic),Active dose range,P338 [1],7.5 mg/kg
same,No. of cures,P338 [2],3
same,T/C,P338 [3],357%
CC[C@@]1(O)C(=O)OCc2c1cc1n(c2=O)Cc2cc3c(N)cccc3nc2-1 [9-AMINOCAMPTOTHECIN],T/C,L1210 leukemia (mouse) [4],348%
same,KE (log cell kill),L1210 leukemia (mouse) [5],> 5.86
same,No. of cures,P338 [2],4
same,Active dose range,L1210 leukemia (mouse) [6],2.5 mg/kg
CCC1(O)C(=O)OCc2c1cc1n(c2=O)Cc2cc3cc(N)ccc3nc2-1 (racemic),T/C,P338 [7],329%
same,KE (log cell kill),L1210 leukemia (mouse) [5],> 5.86
same,Active dose range,P338 [8],4 mg/kg
same,No. of cures,P338 [2],3
same,Toxic dose,P338 [9],32 mg/kg
CC[C@@]1(O)C(=O)OCc2c1cc1n(c2=O)Cc2cc3c(N)c(OC)ccc3nc2-1,No. of cures,P338 [2],0
same,T/C,L1210 leukemia (mouse) [10],186%
CC[C@](O)(C(=O)[O-])c1cc2n(c(=O)c1CO)Cc1cc3ccccc3nc1-2.[Na+],T/C,L1210 leukemia (mouse) [10],215%
CC[C@@]1(O)C(=O)OCc2c1cc1n(c2=O)Cc2cc3c(NC(C)=O)c(O)ccc3nc2-1,Active dose range,P338 [11],2.5 mg/kg
same,No. of cures,P338 [2],0
same,T/C,L1210 leukemia (mouse) [10],220%
CC[C@@]1(O)C(=O)OCc2c1cc1n(c2=O)Cc2cc3ccccc3nc2-1 [CAMPTOTHECIN],T/C,P338 [12],197%
CC[C@@]1(O)C(=O)OCc2c1cc1n(c2=O)Cc2cc3cccc(N)c3nc2-1,T/C,P338 [13],inactive
CCC1(O)C(=O)OCc2c1cc1n(c2=O)Cc2cc3cc4c(cc3nc2-1)OCO4 (racemic),KE (log cell kill),L1210 leukemia (mouse) [5],> 5.97
same,No. of cures,P338 [2],2
same,Active dose range,P338 [14],2 mg/kg
same,T/C,P338 [15],325%
CC[C@@]1(O)C(=O)OCc2c1cc1n(c2=O)Cc2cc3c([N+](=O)[O-])c(OC)ccc3nc2-1,Active dose range,P338 [11],2.5 mg/kg
same,No. of cures,P338 [2],0
same,T/C,L1210 leukemia (mouse) [10],160%
CCC1(O)C(=O)OCc2c1cc1n(c2=O)Cc2cc3cnccc3nc2-1 (stereo not drawn),T/C,L1210 leukemia (mouse) [4],162%
same,No. of cures,P338 [2],0
same,Active dose range,P338 [16],1.25 mg/kg
CCC1(O)C(=O)OCc2c1cc1n(c2=O)Cc2cc3cccnc3nc2-1 (stereo not drawn),Active dose range,P338 [17],8 mg/kg
same,No. of cures,P338 [2],0
same,T/C,P338 [18],175%
CC[C@@]1(O)C(=O)OCc2c1cc1n(c2=O)Cc2cc3cccc([N+](=O)[O-])c3nc2-1,Active dose range,P338 [19],2.5 mg/kg
same,No. of cures,P338 [2],0
same,T/C,L1210 leukemia (mouse) [10],151%
CCN(CC)CCOc1ccc2nc3c(cc2c1)Cn1c-3cc2c(c1=O)COC(=O)[C@]2(O)CC.Cl,No. of cures,P338 [2],0
same,T/C,P338 [20],183%
same,Active dose range,P338 [21],2 mg/kg
CCC1(O)C(=O)OCc2c1cc1n(c2=O)Cc2cc3cc(OC)c(OC)cc3nc2-1 (racemic),T/C,P338 [22],inactive
same,Toxic dose,P338 [9],>50 mg/kg
CCC1(O)C(=O)OCc2c1cc1n(c2=O)Cc2cc3cc([N+](=O)[O-])ccc3nc2-1 (racemic),Active dose range,P338 [23],7.5 mg/kg
same,KE (log cell kill),L1210 leukemia (mouse) [5],> 5.86
same,No. of cures,P338 [2],1
CC[C@@]1(O)C(=O)OCc2c1cc1n(c2=O)Cc2cc3cc(O)ccc3nc2-1 [HYDROXYCAMPTOTHECIN],Toxic dose,P338 [24],6.25 mg/kg
same,No. of cures,P338 [2],0
same,Active dose range,P338 [25],0.4 mg/kg
same,T/C,P338 [26],297%
CC[C@@]1(O)C(=O)OCc2c1cc1n(c2=O)Cc2cc3c([N+](=O)[O-])cccc3nc2-1 [RUBITECAN],KE (log cell kill),L1210 leukemia (mouse) [5],> 5.86
same,Active dose range,L1210 leukemia (mouse) [27],2.5 mg/kg
same,No. of cures,P338 [2],5
same,T/C,L1210 leukemia (mouse) [28],348%
same,Toxic dose,P338 [9],40 mg/kg
CCC1(O)C(=O)OCc2c1cc1n(c2=O)Cc2cc3cc(NC(C)=O)ccc3nc2-1 (stereo not drawn),KE (log cell kill),L1210 leukemia (mouse) [5],> 5.86
same,Active dose range,P338 [29],5 mg/kg
same,No. of cures,P338 [2],1
same,T/C,L1210 leukemia (mouse) [10],318%
CC[C@@]1(O)C(=O)OCc2c1cc1n(c2=O)Cc2cc3c([N+](=O)[O-])c(O)ccc3nc2-1,Active dose range,P338 [11],2.5 mg/kg
same,T/C,P338 [30],131%
same,No. of cures,P338 [2],0
CC[C@@]1(O)C(=O)OCc2c1cc1n(c2=O)Cc2cc3cc(OC)ccc3nc2-1,T/C,P338 [31],167%
same,No. of cures,P338 [2],0
same,Active dose range,P338 [32],0.4 mg/kg
CC[C@@]1(O)C(=O)OCc2c1cc1n(c2=O)Cc2cc3cc(OCC(=O)O)ccc3nc2-1,T/C,P338 [13],inactive
CCC1(O)C(=O)OCc2c1cc1n(c2=O)Cc2cc3sccc3nc2-1 (racemic),Active dose range,P338 [33],3.12 mg/kg
same,T/C,P338 [34],193%
same,No. of cures,P338 [2],0
same,Toxic dose,P338 [9],50 mg/kg
